Source: ChEMBL document CHEMBL2021863, “Design and synthesis of new 4-pyrazolin-3-yl-1,2,3-triazoles and 1,2,3-triazol-4-yl-pyrazolin-1-ylthiazoles as potential antimicrobial agents” (2012)
Values after ≈ are worked out from the molar mass of the structure shown.

Tests used:
Assay type in all cases: functional
Staphylococcus aureus [1] = assay: Antimicrobial activity against Staphylococcus aureus ATCC 29213 at 100 ug/ml after 24 hrs by agar well diffusion assay; settings: ATCC 29213, 24 h, read-out: DIZ
Bacillus subtilis [2] = assay: Antimicrobial activity against Bacillus subtilis ATCC 6633 after 24 hrs by two-fold serial dilution method; settings: ATCC 6633, 24 h
Escherichia coli [3] = assay: Antimicrobial activity against Escherichia coli ATCC 25922 at 100 ug/ml after 24 hrs by agar well diffusion assay; settings: ATCC 25922, 24 h, read-out: DIZ
Micrococcus luteus [4] = assay: Antimicrobial activity against Sarcina lutea at 100 ug/ml after 24 hrs by agar well diffusion assay; settings: read-out: DIZ
Escherichia coli [5] = assay: Antimicrobial activity against Escherichia coli ATCC 25922 after 24 hrs by two-fold serial dilution method; settings: ATCC 25922, 24 h
Klebsiella pneumoniae [6] = assay: Antimicrobial activity against Klebsiella pneumoniae ATCC 13883 at 100 ug/ml after 24 hrs by agar well diffusion assay; settings: ATCC 13883, 24 h, read-out: DIZ
Micrococcus luteus [7] = assay: Antimicrobial activity against Sarcina lutea after 24 hrs by two-fold serial dilution method
Bacillus subtilis [8] = assay: Antimicrobial activity against Bacillus subtilis ATCC 6633 at 100 ug/ml after 24 hrs by agar well diffusion assay; settings: ATCC 6633, 24 h, read-out: DIZ
Candida albicans [9] = assay: Antifungal activity against Candida albicans NRRL Y-477 at 100 ug/ml after 24 hrs by agar well diffusion assay; settings: NRRL Y-477, 24 h, read-out: DIZ
Saccharomyces cerevisiae [10] = assay: Antifungal activity against Saccharomyces cerevisiae by two-fold serial dilution method
Candida albicans [11] = assay: Antifungal activity against Candida albicans NRRL Y-477 by two-fold serial dilution method
Klebsiella pneumoniae [12] = assay: Antimicrobial activity against Klebsiella pneumoniae ATCC 13883 after 24 hrs by two-fold serial dilution method; settings: ATCC 13883, 24 h
Pseudomonas aeruginosa [13] = assay: Antimicrobial activity against Pseudomonas aeruginosa ATCC 27953 after 24 hrs by two-fold serial dilution method; settings: ATCC 27953, 24 h
Staphylococcus aureus [14] = assay: Antimicrobial activity against Staphylococcus aureus ATCC 29213 after 24 hrs by two-fold serial dilution method; settings: ATCC 29213, 24 h
Pseudomonas aeruginosa [15] = assay: Antimicrobial activity against Pseudomonas aeruginosa ATCC 27953 at 100 ug/ml after 24 hrs by agar well diffusion assay; settings: ATCC 27953, 24 h, read-out: DIZ
Saccharomyces cerevisiae [16] = assay: Antifungal activity against Saccharomyces cerevisiae at 100 ug/ml after 24 hrs by agar well diffusion assay; settings: read-out: DIZ
Priestia megaterium [17] = assay: Antimicrobial activity against Bacillus megaterium ATCC 9885 after 24 hrs by two-fold serial dilution method; settings: ATCC 9885, 24 h
Priestia megaterium [18] = assay: Antimicrobial activity against Bacillus megaterium ATCC 9885 at 100 ug/ml after 24 hrs by agar well diffusion assay; settings: ATCC 9885, 24 h, read-out: DIZ

Row | MIC (Bacillus subtilis [2]) [µg/mL] | MIC (Escherichia coli [5]) [µg/mL] | MIC (Micrococcus luteus [7]) [µg/mL] | MIC (Saccharomyces cerevisiae [10]) [µg/mL] | MIC (Candida albicans [11]) [µg/mL] | MIC (Klebsiella pneumoniae [12]) [µg/mL] | MIC (Pseudomonas aeruginosa [13]) [µg/mL] | MIC (Staphylococcus aureus [14]) [µg/mL] | MIC (Priestia megaterium [17]) [µg/mL] | Compound | zone of inhibition at 100 µg/mL (Staphylococcus aureus [1]) [mm] | zone of inhibition at 100 µg/mL (Escherichia coli [3]) [mm] | zone of inhibition at 100 µg/mL (Micrococcus luteus [4]) [mm] | zone of inhibition at 100 µg/mL (Klebsiella pneumoniae [6]) [mm] | zone of inhibition at 100 µg/mL (Bacillus subtilis [8]) [mm] | zone of inhibition at 100 µg/mL (Candida albicans [9]) [mm] | zone of inhibition at 100 µg/mL (Pseudomonas aeruginosa [15]) [mm] | zone of inhibition at 100 µg/mL (Saccharomyces cerevisiae [16]) [mm] | zone of inhibition at 100 µg/mL (Priestia megaterium [18]) [mm]
1 | 8.25 (≈ 15.6 µM) | 33 (≈ 62.4 µM) | 66 (≈ 125 µM) | 16.5 (≈ 31.2 µM) | 16.5 (≈ 31.2 µM) | 16.5 (≈ 31.2 µM) | 16.5 (≈ 31.2 µM) | 8.25 (≈ 15.6 µM) |  | Cc1ccc(-n2nnc(C3=NN(c4nc(-c5ccc(Cl)cc5)cs4)C(c4ccc(F)cc4)C3)c2C)cc1 (centres undefined) | 28 | 29 | 22 | 28 | 30 | 25 | 24 | 28 | 
2 | 33 (≈ 57.5 µM) | 16.5 (≈ 28.8 µM) | 66 (≈ 115 µM) | 8.25 (≈ 14.4 µM) | 8.25 (≈ 14.4 µM) | 16.5 (≈ 28.8 µM) |  | 8.25 (≈ 14.4 µM) | 33 (≈ 57.5 µM) | Cc1ccc(-n2nnc(C3=NN(c4nc(-c5ccc(Br)cc5)cs4)C(c4ccc(F)cc4)C3)c2C)cc1 (centres undefined) | 30 | 22 | 22 | 24 | 26 | 30 |  | 30 | 22
3 |  | 8.25 (≈ 19 µM) | 132 (≈ 304 µM) | 66 (≈ 152 µM) | 132 (≈ 304 µM) |  | 33 (≈ 75.9 µM) |  | 8.25 (≈ 19 µM) | Cc1ccc(-n2nnc(C3=NN(C4=NC(=O)CS4)C(c4ccc(F)cc4)C3)c2C)cc1 (centres undefined) |  | 28 | 16 |  |  | 16 | 20 | 18 | 30
4 | 33 (≈ 109 µM) | 8.25 (≈ 27.2 µM) | 16.5 (≈ 54.4 µM) | 66 (≈ 218 µM) | 16.5 (≈ 54.4 µM) | 132 (≈ 435 µM) | 8.25 (≈ 27.2 µM) | 16.5 (≈ 54.4 µM) |  | Cc1ccc(-n2nnc(C(=O)/C=C/c3ccccc3)c2C)cc1 | 22 | 32 | 26 | 16 | 26 | 24 | 28 | 22 | 
5 | 16.5 (≈ 51.3 µM) |  | 132 (≈ 411 µM) | 16.5 (≈ 51.3 µM) | 16.5 (≈ 51.3 µM) | 132 (≈ 411 µM) | 132 (≈ 411 µM) | 16.5 (≈ 51.3 µM) | 16.5 (≈ 51.3 µM) | Cc1ccc(-n2nnc(C(=O)/C=C/c3ccc(F)cc3)c2C)cc1 | 20 |  | 16 | 16 | 26 | 22 | 16 | 23 | 24
6 | 8.25 (≈ 25.1 µM) | 132 (≈ 402 µM) | 16.5 (≈ 50.2 µM) | 8.25 (≈ 25.1 µM) | 16.5 (≈ 50.2 µM) | 16.5 (≈ 50.2 µM) | 8.25 (≈ 25.1 µM) | 16.5 (≈ 50.2 µM) |  | Cc1ccc(-n2nnc(C(=O)/C=C/c3ccc(C#N)cc3)c2C)cc1 | 23 | 16 | 24 | 24 | 28 | 24 | 26 | 30 | 
7 | 33 (≈ 85.4 µM) | 8.25 (≈ 21.3 µM) | 33 (≈ 85.4 µM) | 66 (≈ 171 µM) | 16.5 (≈ 42.7 µM) |  | 132 (≈ 342 µM) | 132 (≈ 342 µM) | 33 (≈ 85.4 µM) | Cc1ccc(-n2nnc(C(=O)/C=C/c3ccc(N4CCCCC4)cc3)c2C)cc1 | 16 | 28 | 28 |  | 18 | 18 | 16 | 20 | 20
8 | 8.25 (≈ 26 µM) | 132 (≈ 416 µM) | 16.5 (≈ 52 µM) | 8.25 (≈ 26 µM) | 8.25 (≈ 26 µM) |  | 8.25 (≈ 26 µM) | 8.25 (≈ 26 µM) | 132 (≈ 416 µM) | Cc1ccc(-n2nnc(C3=NNC(c4ccccc4)C3)c2C)cc1 (centres undefined) | 34 | 16 | 30 |  | 32 | 28 | 28 | 28 | 16
9 |  | 132 (≈ 394 µM) | 66 (≈ 197 µM) | 66 (≈ 197 µM) | 132 (≈ 394 µM) | 132 (≈ 394 µM) | 8.25 (≈ 24.6 µM) | 33 (≈ 98.4 µM) | 132 (≈ 394 µM) | Cc1ccc(-n2nnc(C3=NNC(c4ccc(F)cc4)C3)c2C)cc1 (centres undefined) | 20 | 16 | 18 | 16 |  | 16 | 30 | 18 | 16
10 | 33 (≈ 96.4 µM) | 8.25 (≈ 24.1 µM) | 8.25 (≈ 24.1 µM) | 8.25 (≈ 24.1 µM) | 8.25 (≈ 24.1 µM) | 8.25 (≈ 24.1 µM) | 8.25 (≈ 24.1 µM) |  | 33 (≈ 96.4 µM) | Cc1ccc(-n2nnc(C3=NNC(c4ccc(C#N)cc4)C3)c2C)cc1 (centres undefined) |  | 30 | 28 | 30 | 26 | 28 | 28 | 30 | 24
11 | 132 (≈ 330 µM) |  | 33 (≈ 82.4 µM) | 66 (≈ 165 µM) | 132 (≈ 330 µM) |  |  | 132 (≈ 330 µM) |  | Cc1ccc(-n2nnc(C3=NNC(c4ccc(N5CCCCC5)cc4)C3)c2C)cc1 (centres undefined) | 18 |  | 18 |  | 16 | 18 |  | 18 | 
12 |  | 8.25 (≈ 18.2 µM) | 66 (≈ 146 µM) | 16.5 (≈ 36.5 µM) | 16.5 (≈ 36.5 µM) | 16.5 (≈ 36.5 µM) | 132 (≈ 292 µM) | 8.25 (≈ 18.2 µM) | 8.25 (≈ 18.2 µM) | Cc1ccc(-n2nnc(C3=NN(C(=S)Nc4ccccc4)C(c4ccccc4)C3)c2C)cc1 (centres undefined) | 18 |  | 20 | 18 | 26 | 24 | 24 | 26 | 24
13 | 16.5 (≈ 35.1 µM) |  | 16.5 (≈ 35.1 µM) | 16.5 (≈ 35.1 µM) | 16.5 (≈ 35.1 µM) | 16.5 (≈ 35.1 µM) |  | 132 (≈ 281 µM) | 16.5 (≈ 35.1 µM) | Cc1ccc(-n2nnc(C3=NN(C(=S)Nc4ccccc4)C(c4ccc(F)cc4)C3)c2C)cc1 (centres undefined) | 16 |  | 20 | 22 | 27 | 22 |  | 24 | 20
14 |  |  | 33 (≈ 69.1 µM) | 8.25 (≈ 17.3 µM) | 33 (≈ 69.1 µM) |  | 66 (≈ 138 µM) | 33 (≈ 69.1 µM) |  | Cc1ccc(-n2nnc(C3=NN(C(=S)Nc4ccccc4)C(c4ccc(C#N)cc4)C3)c2C)cc1 (centres undefined) | 20 |  | 24 |  |  | 22 | 22 | 24 | 
15 | 33 (≈ 58.5 µM) | 8.25 (≈ 14.6 µM) | 66 (≈ 117 µM) | 8.25 (≈ 14.6 µM) | 8.25 (≈ 14.6 µM) |  | 33 (≈ 58.5 µM) | 132 (≈ 234 µM) | 8.25 (≈ 14.6 µM) | Cc1ccc(-n2nnc(C3=NN(C(=S)NC(=O)c4ccccc4)C(c4ccc(N5CCCCC5)cc4)C3)c2C)cc1 (centres undefined) | 16 | 32 | 23 |  | 24 | 30 | 26 | 30 | 30
16 |  | 16.5 (≈ 41.8 µM) | 132 (≈ 335 µM) | 8.25 (≈ 20.9 µM) | 16.5 (≈ 41.8 µM) |  | 16.5 (≈ 41.8 µM) |  | 132 (≈ 335 µM) | Cc1ccc(-n2nnc(C3=NN(C(N)=S)C(c4ccc(F)cc4)C3)c2C)cc1 (centres undefined) |  | 22 | 16 |  |  | 26 | 26 | 30 | 18
